Here are results for one compound from publication PMC11272821, “Mechanistic safety assessment via multi-omic characterisation of systemic pathway perturbations following in vivo MAT2A inhibition” (Archives of Toxicology, 2024).

Where only a bound is given, the exact number is not on record here.

Data set [1] is described as follows: Rat plasma fraction unbound by rapid equilibrium dialysis. The data set is classed as in vitro ADME. For orientation: In equilibrium dialysis only unbound substance equilibrates across the membrane.
The test system of data set [2] is HCT116 MTAP KO cells. Nature of the data set: HCT116 cell SAM assay, MTAP KO. The data set is classed as cell-based. The text has this:
The structure and in vitro properties of the compound are shown in Table 1 together with potency in the HCT116 isogenic cell line (MTAP WT and KO) and in the MAT2A biochemical assay (SAM endpoint).

Data set [3] is described as follows: LogD (pH 7.4). In kind it is physicochemical.
The target in data set [4] is T1, M2 muscarinic receptor (Homo sapiens, UniProt P08172).
T1 construct: Eurofins
T1 sequence (P08172 1-466): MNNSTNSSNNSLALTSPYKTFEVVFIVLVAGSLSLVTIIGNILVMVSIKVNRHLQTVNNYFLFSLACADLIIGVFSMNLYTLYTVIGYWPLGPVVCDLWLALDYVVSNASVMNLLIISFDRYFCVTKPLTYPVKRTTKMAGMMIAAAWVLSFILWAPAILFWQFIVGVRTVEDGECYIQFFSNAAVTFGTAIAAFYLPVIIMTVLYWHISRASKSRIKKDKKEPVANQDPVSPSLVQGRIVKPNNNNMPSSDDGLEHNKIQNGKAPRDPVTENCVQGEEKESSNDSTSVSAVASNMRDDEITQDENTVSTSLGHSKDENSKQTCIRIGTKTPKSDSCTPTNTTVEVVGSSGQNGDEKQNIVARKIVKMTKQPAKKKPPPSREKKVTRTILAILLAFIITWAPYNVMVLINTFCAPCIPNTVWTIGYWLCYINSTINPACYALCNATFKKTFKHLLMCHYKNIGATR
Nature of the data set: Cell based functional assay. On the procedure:
(§1) Secondary pharmacology assays were performed at Eurofins using standard experimental techniques against a total of 86 targets across a broad pharmacological space. Assay details along with experimental protocols are described at https://www.eurofinsdiscoveryservices.com. […] Assays measuring substrate turnover or phosphorylation by isolated proteins were used for kinase and enzyme targets, allowing direct determination of the mode of action of the compounds. […] Assays were run in eight points concentration response mode with half log dilutions and IC50, EC50 or Ki (Cheng and Prusoff [1973]) values determined.

The target in data set [5] is T2, A1 adenosine receptor (Homo sapiens, UniProt P30542).
T2 construct: purchased Eurofins
T2 sequence (P30542 whole entry): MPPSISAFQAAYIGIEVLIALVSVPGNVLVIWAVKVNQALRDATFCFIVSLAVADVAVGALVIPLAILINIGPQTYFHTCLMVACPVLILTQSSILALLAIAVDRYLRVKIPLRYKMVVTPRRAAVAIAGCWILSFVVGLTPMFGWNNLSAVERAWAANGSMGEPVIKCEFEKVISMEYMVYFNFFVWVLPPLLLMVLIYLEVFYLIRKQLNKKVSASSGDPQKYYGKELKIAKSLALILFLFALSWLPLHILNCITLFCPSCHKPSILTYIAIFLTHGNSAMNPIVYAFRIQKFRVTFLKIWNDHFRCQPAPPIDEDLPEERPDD
The data set can be described thus: Cell based functional assay. The conditions noted are these: mode of action ND. On the procedure: as §1

Data set [6] deals with T3, A2A adenosine receptor (Homo sapiens, UniProt P29274).
T3 construct: Eurofins
T3 sequence (P29274 whole entry): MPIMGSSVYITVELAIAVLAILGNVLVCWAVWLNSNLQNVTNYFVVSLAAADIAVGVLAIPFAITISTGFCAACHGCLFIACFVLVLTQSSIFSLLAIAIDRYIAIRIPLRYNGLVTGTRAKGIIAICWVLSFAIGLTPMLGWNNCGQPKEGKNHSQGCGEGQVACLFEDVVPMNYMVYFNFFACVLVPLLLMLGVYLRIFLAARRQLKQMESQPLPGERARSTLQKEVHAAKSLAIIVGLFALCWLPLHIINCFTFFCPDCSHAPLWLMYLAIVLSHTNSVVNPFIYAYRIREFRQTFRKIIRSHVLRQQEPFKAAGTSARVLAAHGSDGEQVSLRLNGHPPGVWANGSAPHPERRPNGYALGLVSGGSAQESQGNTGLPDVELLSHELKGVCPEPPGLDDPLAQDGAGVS
Nature of the data set: Cell based functional assay. The conditions noted are these: mode of action ND. On the procedure:
as §1

For data set [7], the target named is T4, CB1 cannabinoid receptor (Homo sapiens, UniProt P21554).
T4 construct: purchased Eurofins
T4 sequence (P21554 whole entry): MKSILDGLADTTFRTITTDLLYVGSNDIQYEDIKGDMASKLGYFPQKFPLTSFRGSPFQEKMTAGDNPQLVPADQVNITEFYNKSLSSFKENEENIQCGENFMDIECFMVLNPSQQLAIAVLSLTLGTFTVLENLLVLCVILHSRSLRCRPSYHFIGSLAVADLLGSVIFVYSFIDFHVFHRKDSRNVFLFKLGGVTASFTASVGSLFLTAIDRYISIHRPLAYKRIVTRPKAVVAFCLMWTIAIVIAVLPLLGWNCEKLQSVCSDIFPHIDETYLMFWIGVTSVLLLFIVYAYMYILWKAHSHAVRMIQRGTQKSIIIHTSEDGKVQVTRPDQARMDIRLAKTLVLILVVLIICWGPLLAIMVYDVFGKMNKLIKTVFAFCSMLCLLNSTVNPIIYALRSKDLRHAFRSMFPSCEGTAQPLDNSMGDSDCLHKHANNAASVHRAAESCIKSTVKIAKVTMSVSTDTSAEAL
Nature of the data set: Cell based functional assay. The conditions noted are these: mode of action ND. On the procedure:
as §1

The target in data set [8] is T5, α1B adrenoceptor (Homo sapiens, UniProt P35368).
T5 construct: Eurofins
T5 sequence (P35368 1-520): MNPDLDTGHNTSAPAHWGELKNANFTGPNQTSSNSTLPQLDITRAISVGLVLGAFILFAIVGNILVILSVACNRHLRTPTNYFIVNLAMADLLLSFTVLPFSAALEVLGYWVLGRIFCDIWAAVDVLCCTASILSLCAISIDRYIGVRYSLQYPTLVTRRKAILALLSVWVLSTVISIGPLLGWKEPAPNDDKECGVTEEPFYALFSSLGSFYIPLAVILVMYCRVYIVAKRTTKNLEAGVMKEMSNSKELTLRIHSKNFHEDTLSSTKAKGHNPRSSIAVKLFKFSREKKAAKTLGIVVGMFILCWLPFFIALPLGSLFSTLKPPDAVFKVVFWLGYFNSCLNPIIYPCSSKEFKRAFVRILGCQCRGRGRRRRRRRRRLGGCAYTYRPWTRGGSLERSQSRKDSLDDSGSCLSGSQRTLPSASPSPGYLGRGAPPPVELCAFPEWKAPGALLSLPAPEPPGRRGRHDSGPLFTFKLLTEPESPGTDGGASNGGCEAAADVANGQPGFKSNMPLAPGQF
The data set can be described thus: Cell based functional assay. On the procedure: as §1

The target of data set [9] is T6, 5-HT7 receptor (Homo sapiens, UniProt P34969).
T6 construct: Eurofins
T6 sequence (P34969 whole entry): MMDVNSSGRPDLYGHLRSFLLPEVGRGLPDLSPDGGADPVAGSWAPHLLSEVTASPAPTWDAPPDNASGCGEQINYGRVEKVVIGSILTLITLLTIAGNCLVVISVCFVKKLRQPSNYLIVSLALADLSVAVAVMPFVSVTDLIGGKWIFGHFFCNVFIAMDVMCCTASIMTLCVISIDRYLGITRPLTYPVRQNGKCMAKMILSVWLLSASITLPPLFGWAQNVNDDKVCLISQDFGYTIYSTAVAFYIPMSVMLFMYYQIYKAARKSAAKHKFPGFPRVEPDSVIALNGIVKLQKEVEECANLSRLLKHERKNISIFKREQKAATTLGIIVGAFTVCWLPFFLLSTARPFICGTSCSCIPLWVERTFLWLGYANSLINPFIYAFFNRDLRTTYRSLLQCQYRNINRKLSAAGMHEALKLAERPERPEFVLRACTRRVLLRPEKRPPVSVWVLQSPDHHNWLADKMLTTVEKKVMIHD
The data set can be described thus: Cell based functional assay. On the procedure: as §1

Data set [10] relates to HepG2 Spheroid. The data set can be described thus: HepG2 C3A 3D spheroid cytotoxicity. The following applies: 3D spheroids; read-out: HepG2 Spheroid Cytotox IC50. In kind it is cell-based. The text has this: (§2) Full curve IC50 (µM) for hERG (human ether-a-go-go-related gene) and the cardiac ion channel panel (sodium and potassium ion channels; Nav1.5, IKs, Kv4.3), along with the L-type Calcium channel (Cav-1.2 Ver; verapamil, DIL; diltiazem), HepG2 C3A 3D spheroids, HepG2 C3A (2D cultures in glucose or galactose media), and THP1 cytotoxicity.

Data set [11] has as its system THP-1. The data set can be described thus: THP1 cytotoxicity. The conditions noted are these: read-out: THP-1 Cytotox IC50. The data set is classed as cell-based.
From the text: as §2

Data set [12] has as its target hERG (Homo sapiens, UniProt Q12809). The data set can be described thus: hERG safety assay. The data set is classed as cell-based. The following applies: Full curve.
From the text: as §2
A general note: hERG is a cardiac potassium channel; its block is linked to QT prolongation.

Data set [13] deals with Kv4.3 (Homo sapiens, UniProt Q9UK17). Nature of the data set: Cardiac ion channel panel. In kind it is cell-based. The conditions noted are these: Full curve.
Chain of Kv4.3 (Q9UK17 whole entry): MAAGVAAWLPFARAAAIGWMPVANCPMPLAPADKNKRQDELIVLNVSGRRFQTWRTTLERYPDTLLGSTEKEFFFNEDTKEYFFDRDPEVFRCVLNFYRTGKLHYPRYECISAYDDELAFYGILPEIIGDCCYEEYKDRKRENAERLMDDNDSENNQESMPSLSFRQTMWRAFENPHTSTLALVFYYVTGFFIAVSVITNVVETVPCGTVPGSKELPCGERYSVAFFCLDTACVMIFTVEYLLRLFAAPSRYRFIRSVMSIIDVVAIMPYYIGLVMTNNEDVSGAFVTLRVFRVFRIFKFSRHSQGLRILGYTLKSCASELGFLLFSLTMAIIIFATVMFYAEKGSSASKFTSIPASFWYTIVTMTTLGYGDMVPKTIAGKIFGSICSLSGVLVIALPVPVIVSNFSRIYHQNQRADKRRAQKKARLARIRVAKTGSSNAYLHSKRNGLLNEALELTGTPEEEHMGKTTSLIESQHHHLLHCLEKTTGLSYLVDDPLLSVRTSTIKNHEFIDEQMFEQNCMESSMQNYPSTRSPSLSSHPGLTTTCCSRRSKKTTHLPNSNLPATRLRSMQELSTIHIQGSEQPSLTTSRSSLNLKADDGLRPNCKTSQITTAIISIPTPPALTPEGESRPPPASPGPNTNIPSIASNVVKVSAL
From the text: as §2

Data set [14] deals with NaV1.5 (Homo sapiens, UniProt Q14524). The data set can be described thus: Cardiac ion channel panel. The data set is classed as cell-based. The conditions noted are these: Full curve.
Chain of NaV1.5 (Q14524 whole entry): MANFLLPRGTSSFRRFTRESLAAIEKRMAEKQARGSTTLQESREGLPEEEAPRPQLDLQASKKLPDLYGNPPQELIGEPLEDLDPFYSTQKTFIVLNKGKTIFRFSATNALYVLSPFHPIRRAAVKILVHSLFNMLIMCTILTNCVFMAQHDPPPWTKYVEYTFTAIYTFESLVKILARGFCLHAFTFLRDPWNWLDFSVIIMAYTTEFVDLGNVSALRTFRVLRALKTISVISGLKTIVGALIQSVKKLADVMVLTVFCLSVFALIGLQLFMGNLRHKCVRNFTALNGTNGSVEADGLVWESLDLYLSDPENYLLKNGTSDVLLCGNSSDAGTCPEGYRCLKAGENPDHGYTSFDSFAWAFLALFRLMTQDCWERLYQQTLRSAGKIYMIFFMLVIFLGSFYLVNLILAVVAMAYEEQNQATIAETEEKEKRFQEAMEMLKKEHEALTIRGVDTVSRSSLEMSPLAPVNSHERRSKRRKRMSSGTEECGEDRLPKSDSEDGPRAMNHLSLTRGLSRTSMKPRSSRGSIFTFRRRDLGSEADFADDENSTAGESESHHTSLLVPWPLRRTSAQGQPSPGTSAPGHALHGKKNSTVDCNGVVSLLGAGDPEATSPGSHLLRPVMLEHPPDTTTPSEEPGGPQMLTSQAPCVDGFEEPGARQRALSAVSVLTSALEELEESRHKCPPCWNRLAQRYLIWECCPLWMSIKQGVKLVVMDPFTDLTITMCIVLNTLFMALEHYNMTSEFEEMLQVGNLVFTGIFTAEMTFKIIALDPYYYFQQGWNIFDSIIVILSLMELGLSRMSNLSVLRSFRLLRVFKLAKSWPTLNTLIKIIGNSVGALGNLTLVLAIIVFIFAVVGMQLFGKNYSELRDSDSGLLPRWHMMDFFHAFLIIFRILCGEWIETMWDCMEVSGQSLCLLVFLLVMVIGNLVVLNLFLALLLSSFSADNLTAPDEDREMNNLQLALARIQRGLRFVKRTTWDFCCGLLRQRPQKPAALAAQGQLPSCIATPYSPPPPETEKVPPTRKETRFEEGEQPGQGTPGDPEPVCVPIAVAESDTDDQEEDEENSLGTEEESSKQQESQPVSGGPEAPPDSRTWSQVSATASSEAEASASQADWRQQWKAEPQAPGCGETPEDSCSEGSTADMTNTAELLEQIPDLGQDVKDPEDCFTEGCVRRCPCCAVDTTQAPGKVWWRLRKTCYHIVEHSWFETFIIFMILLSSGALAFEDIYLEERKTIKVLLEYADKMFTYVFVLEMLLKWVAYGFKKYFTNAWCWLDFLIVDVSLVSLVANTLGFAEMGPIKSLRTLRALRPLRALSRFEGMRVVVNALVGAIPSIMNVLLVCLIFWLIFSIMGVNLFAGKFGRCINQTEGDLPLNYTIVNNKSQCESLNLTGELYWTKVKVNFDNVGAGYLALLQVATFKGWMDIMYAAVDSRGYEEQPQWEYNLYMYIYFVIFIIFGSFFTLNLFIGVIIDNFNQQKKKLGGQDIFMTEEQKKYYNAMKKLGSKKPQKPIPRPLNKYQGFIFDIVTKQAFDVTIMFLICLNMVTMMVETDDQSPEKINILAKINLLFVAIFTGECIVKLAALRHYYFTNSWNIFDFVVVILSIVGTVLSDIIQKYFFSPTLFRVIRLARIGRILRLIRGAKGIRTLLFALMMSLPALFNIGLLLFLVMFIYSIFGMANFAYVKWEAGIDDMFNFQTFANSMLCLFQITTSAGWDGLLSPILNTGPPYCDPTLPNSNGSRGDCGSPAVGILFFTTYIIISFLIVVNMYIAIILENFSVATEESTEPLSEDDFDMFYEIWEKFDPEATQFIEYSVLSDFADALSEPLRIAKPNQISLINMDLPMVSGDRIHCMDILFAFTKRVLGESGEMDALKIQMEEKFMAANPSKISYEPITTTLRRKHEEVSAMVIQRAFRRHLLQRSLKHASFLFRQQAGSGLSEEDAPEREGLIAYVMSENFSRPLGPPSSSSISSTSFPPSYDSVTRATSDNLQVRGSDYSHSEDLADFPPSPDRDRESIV
From the text: as §2

Data set [15] addresses IKs (Homo sapiens, UniProt P51787). Nature of the data set: Cardiac ion channel panel. The data set is classed as cell-based. The conditions noted are these: Full curve.
From the text: as §2

Setting [16] is: Antagonist, read-out: Functional IC50 or EC50.

For the compound `Cn1cc2cc(-c3cc4[nH]nc(C5CC5)c4n(-c4ccc(OC(F)F)cc4)c3=O)ccc2n1` [AZ’9567], the “rat plasma fraction unbound” value in data set [1] stood at 0.00614. In addition, the “HCT116 cell SAM MTAP KO pIC50” value in data set [2] stood at 8.9. In data set [3], the “LogD (pH 7.4)” value came to 3.4. Besides, the “Pharmacological mode of action” value in data set [4], in data set [8] and in [9] was “Antagonist” each time. Besides, the IC50 – broadly, the point on the concentration scale where inhibition reaches its midpoint – in data set [4] (setting [16]) was 17.1 µM; in data set [8] (setting [16]), 28.9 µM; in [9] (setting [16]) it was 2.9 µM; in data set [10] it was 58.7 µM; in data set [11], more than 50 µM; in [12], 33.1 µM. Also, the results for the IC50 in data set [13], in data set [14] and in data set [15] were more than 40 µM, more than 40 µM and more than 33.3 µM, respectively. Moreover, the entries for the “Functional IC50 or EC50” value in data set [5], in data set [6] and in data set [7] were more than 30.1 µM, more than 100 µM and more than 100 µM, respectively.
